Data reported in paper PMC6704710, “Preclinical evaluation of 3D185, a novel potent inhibitor of FGFR1/2/3 and CSF-1R, in FGFR-dependent and macrophage-dominant cancer models” (Journal of Experimental & Clinical Cancer Research : CR, 2019).

Columns and labels:
Assay in all cases: Eurofins kinase panel
Assay type in all cases: biochemical
PI3KC2γ(h) = biological target: T1, PI3KC2γ(h) (Homo sapiens, UniProt O75747); conditions: read-out: Inhibition rate (%)
T1 construct: purchased Eurofins (KinaseProfiler)
T1 sequence (O75747 1-1486): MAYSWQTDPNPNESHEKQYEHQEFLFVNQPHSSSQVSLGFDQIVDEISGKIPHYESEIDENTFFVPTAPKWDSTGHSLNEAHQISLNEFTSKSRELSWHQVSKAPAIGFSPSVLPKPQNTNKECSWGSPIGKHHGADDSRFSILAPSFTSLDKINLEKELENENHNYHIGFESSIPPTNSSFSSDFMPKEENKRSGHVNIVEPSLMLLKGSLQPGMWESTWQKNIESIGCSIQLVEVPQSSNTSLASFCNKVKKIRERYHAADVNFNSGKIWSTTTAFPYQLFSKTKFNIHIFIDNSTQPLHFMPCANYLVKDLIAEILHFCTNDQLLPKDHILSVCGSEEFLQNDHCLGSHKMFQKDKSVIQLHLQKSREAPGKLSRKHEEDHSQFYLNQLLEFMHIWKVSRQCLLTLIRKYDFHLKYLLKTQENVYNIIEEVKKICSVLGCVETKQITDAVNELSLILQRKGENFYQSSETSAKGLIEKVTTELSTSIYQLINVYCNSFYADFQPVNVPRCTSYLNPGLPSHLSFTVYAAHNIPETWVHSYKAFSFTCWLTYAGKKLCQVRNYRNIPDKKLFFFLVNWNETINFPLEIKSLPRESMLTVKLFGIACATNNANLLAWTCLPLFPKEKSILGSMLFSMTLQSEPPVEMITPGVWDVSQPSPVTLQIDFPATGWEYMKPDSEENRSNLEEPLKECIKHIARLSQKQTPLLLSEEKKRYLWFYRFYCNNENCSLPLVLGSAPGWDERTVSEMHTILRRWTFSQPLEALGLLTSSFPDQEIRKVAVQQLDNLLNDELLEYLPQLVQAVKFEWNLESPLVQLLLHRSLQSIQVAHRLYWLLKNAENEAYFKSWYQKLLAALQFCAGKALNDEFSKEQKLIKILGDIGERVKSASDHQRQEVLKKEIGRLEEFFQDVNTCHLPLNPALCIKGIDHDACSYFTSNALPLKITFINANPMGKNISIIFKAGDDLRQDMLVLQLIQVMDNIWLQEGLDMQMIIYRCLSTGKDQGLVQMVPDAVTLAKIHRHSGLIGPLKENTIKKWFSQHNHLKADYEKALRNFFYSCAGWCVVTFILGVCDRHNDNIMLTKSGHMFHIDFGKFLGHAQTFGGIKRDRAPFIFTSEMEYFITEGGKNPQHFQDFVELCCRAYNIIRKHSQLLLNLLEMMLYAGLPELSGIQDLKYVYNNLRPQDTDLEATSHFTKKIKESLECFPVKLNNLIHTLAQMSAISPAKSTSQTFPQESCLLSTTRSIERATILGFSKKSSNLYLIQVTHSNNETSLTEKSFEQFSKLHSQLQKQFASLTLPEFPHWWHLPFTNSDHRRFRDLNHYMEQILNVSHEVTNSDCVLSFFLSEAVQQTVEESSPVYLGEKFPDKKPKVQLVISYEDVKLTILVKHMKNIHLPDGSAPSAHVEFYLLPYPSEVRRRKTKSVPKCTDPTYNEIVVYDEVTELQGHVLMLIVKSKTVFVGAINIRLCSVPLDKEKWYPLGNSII

FGFR3(h) = FGFR3(h) (Homo sapiens, UniProt P22607)
Txk(h) = biological target: T2, Txk(h) (Homo sapiens, UniProt P42681); conditions: read-out: Inhibition rate (%)
T2 construct: purchased Eurofins (KinaseProfiler)
T2 sequence (P42681 1-527): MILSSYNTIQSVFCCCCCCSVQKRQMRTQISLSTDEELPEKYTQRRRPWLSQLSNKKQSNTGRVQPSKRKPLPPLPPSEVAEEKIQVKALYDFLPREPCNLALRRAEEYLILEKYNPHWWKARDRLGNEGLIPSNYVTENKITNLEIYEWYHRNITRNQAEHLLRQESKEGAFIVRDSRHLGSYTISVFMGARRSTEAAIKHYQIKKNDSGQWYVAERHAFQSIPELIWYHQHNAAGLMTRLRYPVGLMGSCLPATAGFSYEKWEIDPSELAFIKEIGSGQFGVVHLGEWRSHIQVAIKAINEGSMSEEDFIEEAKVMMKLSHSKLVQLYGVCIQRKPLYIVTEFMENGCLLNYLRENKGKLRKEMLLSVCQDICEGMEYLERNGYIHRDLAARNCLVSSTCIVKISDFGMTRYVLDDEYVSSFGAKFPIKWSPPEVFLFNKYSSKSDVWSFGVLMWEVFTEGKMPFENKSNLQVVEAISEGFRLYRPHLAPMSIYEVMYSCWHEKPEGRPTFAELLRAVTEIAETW

GRK1(h) = biological target: T3, GRK1(h) (Homo sapiens, UniProt Q15835); conditions: read-out: Inhibition rate (%)
T3 construct: purchased Eurofins (KinaseProfiler)
T3 sequence (Q15835 1-563): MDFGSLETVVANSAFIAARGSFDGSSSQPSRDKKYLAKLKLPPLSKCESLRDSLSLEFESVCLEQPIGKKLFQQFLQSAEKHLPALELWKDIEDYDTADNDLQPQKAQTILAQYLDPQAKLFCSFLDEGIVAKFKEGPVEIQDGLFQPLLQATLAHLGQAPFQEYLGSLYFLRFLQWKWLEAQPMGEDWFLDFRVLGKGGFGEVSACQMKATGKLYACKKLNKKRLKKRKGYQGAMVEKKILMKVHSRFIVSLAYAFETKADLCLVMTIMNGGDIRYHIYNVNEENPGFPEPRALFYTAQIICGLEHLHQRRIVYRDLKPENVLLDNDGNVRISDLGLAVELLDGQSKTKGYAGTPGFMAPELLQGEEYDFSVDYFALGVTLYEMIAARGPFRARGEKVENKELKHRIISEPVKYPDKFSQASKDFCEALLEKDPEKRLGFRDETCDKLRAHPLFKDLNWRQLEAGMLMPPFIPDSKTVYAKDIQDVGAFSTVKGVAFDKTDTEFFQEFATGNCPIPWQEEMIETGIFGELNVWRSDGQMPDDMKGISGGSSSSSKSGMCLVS

FGFR3(h), sequence (P22607 23-806): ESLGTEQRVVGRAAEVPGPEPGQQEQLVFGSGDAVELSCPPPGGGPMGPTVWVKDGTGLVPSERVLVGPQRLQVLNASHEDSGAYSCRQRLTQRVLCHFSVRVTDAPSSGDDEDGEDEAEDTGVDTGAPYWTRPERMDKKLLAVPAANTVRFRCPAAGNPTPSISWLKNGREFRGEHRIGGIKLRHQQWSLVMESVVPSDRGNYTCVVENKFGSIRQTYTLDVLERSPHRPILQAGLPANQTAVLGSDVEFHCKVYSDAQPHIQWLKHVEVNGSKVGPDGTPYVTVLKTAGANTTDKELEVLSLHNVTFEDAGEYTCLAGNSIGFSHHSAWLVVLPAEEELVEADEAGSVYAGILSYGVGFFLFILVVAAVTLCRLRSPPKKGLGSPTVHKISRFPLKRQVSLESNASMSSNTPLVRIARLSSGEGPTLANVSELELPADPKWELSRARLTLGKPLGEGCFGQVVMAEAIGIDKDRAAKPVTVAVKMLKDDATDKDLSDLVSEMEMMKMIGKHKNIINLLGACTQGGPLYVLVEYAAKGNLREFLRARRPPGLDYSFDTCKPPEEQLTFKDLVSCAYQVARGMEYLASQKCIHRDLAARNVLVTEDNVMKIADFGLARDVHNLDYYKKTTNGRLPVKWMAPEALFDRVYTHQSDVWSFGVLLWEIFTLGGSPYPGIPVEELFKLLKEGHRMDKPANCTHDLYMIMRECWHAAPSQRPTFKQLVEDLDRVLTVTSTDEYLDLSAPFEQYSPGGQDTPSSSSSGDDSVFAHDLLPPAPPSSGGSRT

COc1cc(OC)c(Cl)c(-c2ccc3c(NC(=O)c4ccc(N5CCNC(C)(C)C5)cc4)n[nH]c3n2)c1Cl [3D185]
inhibition at 0.01 µM (PI3KC2γ(h); 10 nM): -4% | inhibition at 0.1 µM (PI3KC2γ(h); 100 nM): -4% | inhibition at 1 µM (PI3KC2γ(h); 1000 nM): 1% | IC50 (FGFR3(h); estimated from 372-kinase panel): < 10 nM | inhibition at 0.01 µM (FGFR3(h); read-out: Inhibition rate (%)): 94% | inhibition at 0.1 µM (FGFR3(h); read-out: Inhibition rate (%)): 99% | inhibition at 1 µM (FGFR3(h); read-out: Inhibition rate (%)): 100% | inhibition at 0.01 µM (Txk(h); 10 nM): 18% | inhibition at 0.1 µM (Txk(h); 100 nM): 27% | inhibition at 1 µM (Txk(h); 1000 nM): 49% | inhibition at 0.01 µM (GRK1(h); 10 nM): -2% | inhibition at 0.1 µM (GRK1(h); 100 nM): -5% | inhibition at 1 µM (GRK1(h); 1000 nM): -7%
